Potency estimated from few doses and CATDS data for 8 compounds are collected here from paper PMC11062922 (Nature Chemical Biology, 2023).

Test [1] deals with CSNK2A2 (Homo sapiens, UniProt P19784). The experiment in a line: Kinobeads two-dose competition binding: CSNK2A2. On the set-up: to maximize the representation of endogenous proteins; endogenous in cells. The note with it: for CATDS: target CSNK2A2. The text has this:
(§1) Briefly, Kinobeads comprise seven broad-spectrum small molecule kinase inhibitors immobilized on Sepharose beads. […]. Compounds of interest are set to compete for target protein binding with Kinobeads in the lysate and the amount of a given protein bound to Kinobeads in the presence of a compound can be quantified relative to a dimethylsulfoxide (DMSO) vehicle control by label-free mass spectrometry. This assay measures the physical interaction of a compound with thousands of endogenous proteins in parallel and, when systematically increasing the concentration of competitor, enables the calculation of an apparent interaction constant ( Kdapp ) for each compound and protein.
(§2) Kinobeads pulldown experiments were performed as described previously[13],[14],[17] with minor modification. […] The protein concentration was adjusted to 5 mg ml^−1. Kinase inhibitors were spiked into 0.5 ml of cell lysate at final concentrations of 100 and 1,000 nM (or DMSO, 0.3, 1, 3, 10, 30, 100, 300 and 1,000 nM for full dose experiments). […] Lysates were incubated for 45 min at 4 °C. Subsequently, lysates were incubated with Kinobeads ε (17.5 µl of settled beads) for 30 min at 4 °C. To assess the degree of protein depletion from the lysates by Kinobeads, the flow through of the DMSO control was recovered for a pulldown of pulldown experiment where the lysate was incubated a second time with fresh Kinobeads. Beads were washed in three steps with buffer containing 0.4%, 0.2% and no IGEPAL. Bound proteins were reduced with 50 mM DTT in 8 M Urea, 40 mM Tris-HCl pH 7.4 for 30 min at room temperature. After alkylation with 55 mM chloroacetamide, the urea concentration was reduced to 1–2 M and proteins were digested with trypsin. Acidified peptides were desalted and concentrated using SepPak tC18 µEluation plates (Waters). Samples were frozen, dried by vacuum centrifugation and stored at −20 °C.
(§3) Each kinase inhibitor was processed together with all DMSO controls of the same plate. Additionally, each search was supplemented with five high quality DMSO controls for consistent peptide identification and protein grouping. The resultant file (proteinGroups.txt) was used for subsequent filtering, normalization, data visualization and target annotation that was automatically performed by a data processing pipeline built in house that used R (including the ‘drc’ and ‘heatmap’ packages). First, reverse hits, potential contaminants and not quantified proteins in the DMSO control samples were discarded. Protein raw and label-free quantification intensities were normalized to the median DMSO control intensity to obtain relative residual binding intensities for each protein group at every inhibitor concentration and standard deviations of the DMSO control intensity were calculated. IC50 values were estimated based on the following equation IC50=I×100−inhibition/inhibition where [I] is the inhibitor concentration that was used for IC50 calculation and ‘inhibition’ the relative residual binding intensity. […]. Estimated Kdapp values were then calculated by multiplying the estimated IC50 values with a protein-dependent correction factor that was limited to a maximum value of one. The correction factor accounts for the depletion of a target protein from the lysate by Kinobeads. The depletion can be measured by the ratio of the amount of protein captured in two consecutive pulldowns of the same DMSO control lysate. In this study, correction factors were determined in separate experiments using the same lysate mixture and the same bead batch. Correction factors were set to the median of all correction factors. Targets of kinase inhibitors were annotated using the previously published random forest classifier. A training data set was annotated manually. […]

In test [2] the target is T1, BMP2K (Homo sapiens, UniProt Q9NSY1).
T1 construct: endogenous in cells
The experiment in a line: Kinobeads two-dose competition binding: BMP2K. The note with it: for CATDS: target BMP2K.
Description: as §1, §2, §3

For test [3], the target named is T2, MAP3K1 (Homo sapiens, UniProt Q13233).
T2 construct: endogenous in cells
Put plainly: Kinobeads two-dose competition binding: MAP3K1. The note with it: for CATDS: target MAP3K1.
Description: as §1, §2, §3

Test [4] has as its target T3, BMPR2 (Homo sapiens, UniProt Q13873).
T3 construct: to maximize the representation of endogenous proteins; endogenous in cells
T3 sequence (Q13873 27-1038): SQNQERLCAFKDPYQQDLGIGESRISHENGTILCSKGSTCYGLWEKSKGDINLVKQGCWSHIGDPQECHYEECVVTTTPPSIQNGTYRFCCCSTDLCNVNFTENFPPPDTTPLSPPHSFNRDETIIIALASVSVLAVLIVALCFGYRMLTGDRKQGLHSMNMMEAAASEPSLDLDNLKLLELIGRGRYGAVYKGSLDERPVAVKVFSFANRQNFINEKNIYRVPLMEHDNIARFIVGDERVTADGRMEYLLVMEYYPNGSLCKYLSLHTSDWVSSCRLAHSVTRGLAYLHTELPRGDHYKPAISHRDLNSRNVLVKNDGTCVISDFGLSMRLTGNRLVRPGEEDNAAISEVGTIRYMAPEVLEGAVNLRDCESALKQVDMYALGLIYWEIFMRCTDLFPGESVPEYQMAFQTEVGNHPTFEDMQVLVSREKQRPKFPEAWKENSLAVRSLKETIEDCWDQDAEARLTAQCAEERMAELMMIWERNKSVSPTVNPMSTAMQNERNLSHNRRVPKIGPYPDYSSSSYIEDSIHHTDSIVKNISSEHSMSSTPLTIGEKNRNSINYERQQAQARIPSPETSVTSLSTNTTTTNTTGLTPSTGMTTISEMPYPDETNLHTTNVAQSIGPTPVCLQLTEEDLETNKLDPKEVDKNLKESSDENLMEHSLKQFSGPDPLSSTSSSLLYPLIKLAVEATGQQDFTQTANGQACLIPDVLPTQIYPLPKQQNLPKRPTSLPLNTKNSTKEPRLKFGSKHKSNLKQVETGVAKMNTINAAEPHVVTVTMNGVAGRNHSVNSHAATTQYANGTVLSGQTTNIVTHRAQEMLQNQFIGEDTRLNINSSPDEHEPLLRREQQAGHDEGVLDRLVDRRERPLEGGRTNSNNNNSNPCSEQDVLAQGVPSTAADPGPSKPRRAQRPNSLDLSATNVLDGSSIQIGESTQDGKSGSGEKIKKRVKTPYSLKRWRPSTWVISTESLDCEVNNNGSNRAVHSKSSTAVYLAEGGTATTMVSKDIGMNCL
The experiment in a line: Kinobeads two-dose competition binding: BMPR2. As to conditions: for CATDS: target BMPR2.
Description: as §1, §2, §3

Where two headings read alike, the source gives them in different places.

As to `Nc1ncnc2[nH]c(-c3ccccc3)nc12` [AH5015_KCGS], the potency estimated from few doses in test [1] (Kinobeads two-dose screen (binding), read-out: Kdapp CSNK2A2) is greater than 1000 nM. Besides, the CATDS in test [1], in test [2], in test [3] and in test [4] was 0 throughout.
Consider `C[C@]12O[C@H](C[C@]1(O)CO)n1c3ccccc3c3c4c(c5c6ccccc6n2c5c31)CNC4=O` [Lestaurtinib], for which the potency estimated from few doses in test [1] (read-out: Lestaurtinib Drugmatrix value, Gene Name CSNK2A2) was 415 nM.
As to `CCc1cc2c(cc1N1CCC(N3CCOCC3)CC1)C(C)(C)c1[nH]c3cc(C#N)ccc3c1C2=O` [Alectinib], the CATDS in test [1], in test [2], in test [3] and in test [4] was 0 each time.
Take `N#CC1(c2ccc(NC(=O)c3cccnc3NCc3ccncc3)cc2)CCCC1` [Apatinib]: the CATDS in test [1], in test [2], in test [3] and in test [4] was 0 each time.
For `CCN1CCN(Cc2ccc(Nc3ncc(F)c(-c4cc(F)c5nc(C)n(C(C)C)c5c4)n3)nc2)CC1` [Abemaciclib], the CATDS in test [1] was found to be 0.06221; in test [2], 0; in test [3] it was 0; in test [4], 0.
As to `CN(C)C/C=C/C(=O)Nc1cc2c(Nc3ccc(F)c(Cl)c3)ncnc2cc1O[C@H]1CCOC1` [Afatinib], the CATDS in test [1], in test [2], in test [3] and in test [4] was 0 each time.
Take `COc1cc(Nc2ncc3c(C)nc(-c4cc5ccccc5[nH]4)n3n2)cc(OC)c1OC` [GW869516X]: the potency estimated from few doses in test [1] (CSNK2A2, read-out: Kinobeads Data) is 56 nM.
Take `CC(C)N1CC(=O)N(C)c2cnc(Nc3cccc(S(=O)(=O)CCN4CCOCC4)c3)nc21` [BI00009348]: the potency estimated from few doses in test [2] (Kinobeads two-dose, Drugmatrix - all 2, read-out: apparent Kd BMP2K) is 736 nM; in test [3] (Kinobeads two-dose, Drugmatrix - all 2, read-out: apparent Kd MAP3K1) it was greater than 1000 nM; in test [4] (Kinobeads two-dose, Drugmatrix - all 2, read-out: apparent Kd BMPR2) it was 646 nM.
